Measurements taken from patent US20130244896A1, “IN VITRO METHOD FOR PREDICTING WHETHER A COMPOUND IS GENOTOXIC IN VIVO” (priority 2012, published 2013).
Read-outs that look alike come from different tables or passages of the source.

Assays:
[1] = system: HepG2 cells; assay: IC20-72 hours value used as exposure dose in HepG2 cells; assay type: cell-based, human
Protocol: All measurements were performed in triplicate.

[2] = system: hsa-miR-502-3p
[3] = system: hsa-miR-302b
[4] = system: hsa-miR-1246
[5] = system: hsa-miR-1262
[6] = system: hsa-miR-885-3p
[7] = system: hsa-miR-1229
[8] = system: hsa-miR-891b
[9] = system: hsa-miR-30c-1*
[10] = system: microRNA 1262, microRNA 98 and microRNA 30c-1
[11] = system: hsa-miR-888*
[12] = system: hsa-miR-98
[13] = system: bacteria; conditions: cited from earlier work
[14] = GTX/NGTX class as in Tables 3-7; cited from earlier work
[15] = HepG2 cells, IC20-72 hours, read-out: Dose (IC20-72 hours value)
[16] = correct predictions of three independent experiments
[17] = HepG2 cells exposed at Table 1 dose
[18] = number of the three microRNAs predicting correctly
[19] = Homo sapiens, HepG2 cells, IC20-72 hours, read-out: Dose (IC20-72 hours value)

Row | Compound | IC20 [1, 15] [µM] | correctness of microRNA prediction, 502-3p [2, 16] | correctness of microRNA prediction, 302b [3, 16] | correctness of microRNA prediction, 1246 [4, 16] | Score / correctness of miRNA prediction, 1262 (number of correct predictions of three independent experiments) [5, 17] | correctness of microRNA prediction, 885-3p [6, 16] | correctness of microRNA prediction, 1229 [7, 16] | correctness of microRNA prediction, 891b [8, 16] | Score / correctness of miRNA prediction, 30c-1 (number of correct predictions of three independent experiments) [9, 17] | Aggregate result, correct [10, 18] | correctness of microRNA prediction, 888* [11, 16] | Score / correctness of miRNA prediction, 98 (number of correct predictions of three independent experiments) [12, 17] | GTX in vivo [14] | IC20 [1, 19] [µM] | also measured
1 | Aflatoxin B1 |  |  |  |  |  |  |  |  |  |  |  |  |  |  | IC20 ([1]; read-out: Dose (IC20-72 hours value)): 1 µM; correctness of microRNA prediction, 502-3p [2]: (2/3); correctness of microRNA prediction, 302b [3]: (2/3); correctness of microRNA prediction, 1246 [4]: (1/3); Score / correctness of miRNA prediction, 1262 (number of correct predictions of three independent experiments) [5]: (2/3); correctness of microRNA prediction, 885-3p [6]: (1/3); correctness of microRNA prediction, 1229 [7]: (1/3); correctness of microRNA prediction, 891b [8]: (2/3); Score / correctness of miRNA prediction, 30c-1 (number of correct predictions of three independent experiments) [9]: (2/3); Aggregate result, correct [10]: 3/3; correctness of microRNA prediction, 888* [11]: (3/3); Score / correctness of miRNA prediction, 98 (number of correct predictions of three independent experiments) [12]: (2/3)
2 | Oc1cccc2cccnc12 [8-quinolinol] |  |  |  |  |  |  |  |  |  |  |  |  |  |  | IC20 ([1]; Homo sapiens, HepG2, read-out: Dose (IC20-72 hours value)): 15 µM; correctness of microRNA prediction, 502-3p ([2]; human): (2/3); correctness of microRNA prediction, 302b ([3]; human): (1/3); Ames test result [13]: +; correctness of microRNA prediction, 1246 ([4]; human): (0/3); correctness of microRNA prediction, 885-3p ([6]; human): (1/3); correctness of microRNA prediction, 1229 ([7]; human): (3/3); correctness of microRNA prediction, 891b ([8]; human): (3/3); Prediction, miRNA 30c-1 [9]: GTX (key: GTX: hsa-miR-30c-1*: Prediction if Expression is above Reference value; NGTX: hsa-miR-30c-1*: Prediction if Expression is below Reference value); Score / correctness of miRNA prediction, 30c-1 (number of correct predictions of three independent experiments) ([9]; human): (1/3); Aggregate result, result [10]: NGTX; Aggregate result, correct ([10]; human): 2/3; correctness of microRNA prediction, 888* ([11]; human): (3/3); Prediction, miRNA 98 [12]: NGTX (key: GTX: hsa-miR-98: Prediction if Expression is above Reference value; NGTX: hsa-miR-98: Prediction if Expression is below Reference value); Score / correctness of miRNA prediction, 98 (number of correct predictions of three independent experiments) ([12]; human): (3/3)
3 | c1ccc2c(c1)cc1ccc3cccc4ccc2c1c34 [Benzo[a]pyere] | 2 | (2/3) | (2/3) | (3/3) | (2/3) | (2/3) | (3/3) | (3/3) | (2/3) | 3/3 | (2/3) | (2/3) |  |  | 
4 | N.N.[Cl][Pt][Cl] [Cisplatin] | 7 |  |  |  |  |  |  |  |  | 3/3 |  |  | GTX |  | 
5 | C[C@]12CC[C@@H]3c4ccc(O)cc4CC[C@H]3[C@@H]1CC[C@@H]2O [17beta-estradiol, 17 beta-estradiol] | 30 |  |  |  |  |  |  |  |  | 3/3 |  |  | NGTX |  | 
6 | Clc1cc2c(cc1Cl)Oc1cc(Cl)c(Cl)cc1O2 [2,3,7,8-tetrachloro dibenzo-p-dioxin] |  | (2/3) | (2/3) | (3/3) | (3/3) | (3/3) | (2/3) | (2/3) | (2/3) | 3/3 | (1/3) | (3/3) | NGTX | 0.01 | Ames test result [13]: −
7 | O=c1c(O)c(-c2ccc(O)c(O)c2)oc2cc(O)cc(O)c12 [Quercetin] |  | (1/3) | (1/3) | (2/3) | (3/3) | (1/3) | (1/3) | (2/3) | (3/3) | 2/3 | (1/3) | (1/3) | NGTX | 50 | 
8 | CC1(C)S[C@@H]2[C@H](NC(=O)[C@H](N)c3ccccc3)C(=O)N2[C@H]1C(=O)O [Ampicillin trihydrate] |  | (3/3) | (2/3) | (1/3) | (2/3) | (3/3) | (3/3) | (2/3) | (3/3) | 3/3 | (3/3) | (3/3) |  | 250 | 
